Results reported in PubChem BioAssay (NCI).
Where “and” joins values, the source holds several entries; their conditions need not be identical. Equal values may be shown once.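 Method: 48-hour compound exposure of cells in 96-well plates, five concentrations, linear interpolation of endpoints. GI50 = concentration required for 50% inhibition of growth. TGI: concentration producing complete growth inhibition.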

Legend:
Experiment in all cases: inhibition of tumour cell growth, NCI panel, 48 h
SK-MEL-5 melanoma = tested on: SK-MEL-5 melanoma
HOP-62 NSCLC = tested on: HOP-62 NSCLC
PC-3 prostate = tested on: PC-3 prostate
HCT-116 colon = tested on: HCT-116 colon
MCF7 breast = tested on: MCF7 breast
MDA-MB-435 = tested on: MDA-MB-435
SNB-19 CNS = tested on: SNB-19 CNS
SK-MEL-28 melanoma = tested on: SK-MEL-28 melanoma
HCC-2998 colon = tested on: HCC-2998 colon
SF-268 CNS = tested on: SF-268 CNS

SMILES	GI50 (SK-MEL-5 melanoma)	TGI (SK-MEL-5 melanoma)	GI50 (HOP-62 NSCLC)	TGI (HOP-62 NSCLC)	GI50 (PC-3 prostate)	TGI (PC-3 prostate)	GI50 (HCT-116 colon)	TGI (HCT-116 colon)	GI50 (MCF7 breast)	TGI (MCF7 breast)	GI50 (MDA-MB-435)	TGI (MDA-MB-435)	GI50 (SNB-19 CNS)	TGI (SNB-19 CNS)	GI50 (SK-MEL-28 melanoma)	TGI (SK-MEL-28 melanoma)	GI50 (HCC-2998 colon)	TGI (HCC-2998 colon)	GI50 (SF-268 CNS)	TGI (SF-268 CNS)
CCN(Cc1c(F)cccc1Cl)c1ccc(CO)c(Cl)c1	0.5 µM	20.1 µM	0.174 µM	18.3 µM	12 µM	25.1 µM	< 0.0172 µM	12.1 µM	< 0.02 µM	14.4 µM	10.9 µM	24.3 µM	15.7 µM	40.1 µM	13.1 µM	27.4 µM	3.27 µM	18.3 µM	16.4 µM	31.4 µM
COC(=O)N[C@H]1CCc2c(Cl)c(OC)c(OC)c(OC)c2-c2ccc(SC)c(=O)cc21	< 0.01 µM	< 0.0127 µM	< 0.01 µM	> 100 µM	< 0.01 µM	> 70.3 µM	< 0.01 µM	–	< 0.01 µM	> 37.4 µM	< 0.01 µM	< 0.01 µM	< 0.01 µM	> 100 µM	8.52 µM	46 µM	< 0.01 µM	–	< 0.01 µM	> 100 µM
CCOC(=O)CN1C(=O)c2cc([N+](=O)[O-])cc3cc([N+](=O)[O-])cc(c23)C1=O	–	> 100 µM	–	> 100 µM	–	> 100 µM	–	> 100 µM	–	> 100 µM	–	> 100 µM	–	> 100 µM	–	> 100 µM	–	> 100 µM	–	> 94.6 µM
Cc1cccc2c1[nH]c(=O)c1c3ccccc3cn21	11.7 µM	23.9 µM	3.58 µM	15.2 µM	3.9 µM	29.3 µM	2.69 µM	11.7 µM	–	12.5 µM	3.14 µM	11.6 µM	15.6 µM	48 µM	6.86 µM	> 100 µM	4.6 µM	16.3 µM	3.03 µM	8.49 µM
CCC1=C(CC2NCCc3ccccc32)CC2c3cc(OC)c(OC)cc3CCN2C1 (stereo unspecified)	3.39 µM	13.1 µM and 2.7 µM	3.6 µM	17.1 µM and 4.65 µM	3.48 µM	–	2.86 µM	11.6 µM and 2.94 µM	2.95 µM	10.6 µM and 2.3 µM	3.51 µM	14.2 µM and 2.45 µM	3.6 µM	13.7 µM and 11.9 µM	4.35 µM	14.4 µM and 9.26 µM	3.9 µM	15.5 µM and 10.5 µM	3.13 µM	14 µM and 6.12 µM
COc1ccc2nc3cc(Cl)ccc3c(Nc3cc(CN4CCCC4)c(O)c(CN4CCCC4)c3)c2n1	1.56 µM	2.9 µM	1.38 µM	4.91 µM	1.53 µM	6.52 µM	1.04 µM	5.83 µM	1 µM	8.34 µM	1.6 µM	3.07 µM	1.84 µM	10.7 µM	2.15 µM	4.5 µM	1.25 µM	2.91 µM	1.28 µM	3.55 µM
CC1(C)CCC[C@]2(C)c3ccccc3C(=O)CC12 (stereo partly specified)	18 µM	46.4 µM	> 100 µM	> 100 µM	42 µM	> 100 µM	35 µM	> 100 µM	38.2 µM	> 100 µM	22.9 µM	> 100 µM	49.6 µM	> 100 µM	64.6 µM	> 100 µM	20.8 µM	81.4 µM	34.3 µM	> 100 µM
CCn1c2ccccc2c2cc(C(=O)c3ccc(C)c4ccccc34)ccc21	0.319 µM	1.41 µM	0.476 µM	> 100 µM	0.392 µM	> 100 µM	0.344 µM	14.5 µM	0.311 µM	> 100 µM	0.161 µM	0.378 µM	0.438 µM	> 100 µM	0.477 µM	> 100 µM	0.549 µM	3.8 µM	0.877 µM	> 100 µM
Nc1cccc2c1C(=O)c1cccc(NC(=O)c3ccccc3)c1C2=O	0.355 µM	15 µM	0.535 µM	21.5 µM	0.374 µM	> 100 µM	0.401 µM	5.17 µM	0.258 µM	21.3 µM	0.0364 µM	0.414 µM	0.591 µM	> 100 µM	1.11 µM	21 µM	2.79 µM	> 100 µM	0.576 µM	> 100 µM
COc1cc(C(=O)c2cocc2C(=O)c2ccc3c(c2)OCO3)cc(OC)c1OC	–	25.5 µM	–	31.3 µM	–	> 35.9 µM	–	24.4 µM	–	> 100 µM	–	0.955 µM	–	35.3 µM	–	> 49.5 µM	–	16.9 µM	–	45 µM
CN(N)c1nc(N)c(C#N)c(C#N)c1C#N	–	> 10 µM	–	> 10 µM	–	> 10 µM	–	> 10 µM	–	> 10 µM	–	> 10 µM	–	> 10 µM	–	> 10 µM	–	> 10 µM	–	> 10 µM
CC(C)(C)OC(=O)Nc1ccc2c(c1)C(NC(=O)Nc1cccc(C#N)c1)CC(C)(C)O2 (stereo unspecified)	0.463 µM	3.15 µM	5 µM	> 100 µM	0.785 µM	> 35.3 µM	1.24 µM	> 44.6 µM	1.92 µM	30.7 µM	1.44 µM	15.2 µM	3.54 µM	> 100 µM	5.34 µM	71.4 µM	4.93 µM	> 100 µM	5.1 µM	> 100 µM
O=C1N=C(Nc2nc(-c3csc(NC4=NC(=O)/C(=C\c5ccccc5)S4)n3)cs2)S/C1=C/c1ccccc1	5.87 µM	33.4 µM	7.97 µM	46.3 µM	8.98 µM	42.7 µM	3.5 µM	29 µM	3.7 µM	> 50 µM	14.7 µM	> 50 µM	49.1 µM	> 50 µM	> 50 µM	> 50 µM	8.2 µM	45.5 µM	16.6 µM	> 50 µM
